# Data published in ChEMBL document CHEMBL4138121, “Selective photocytotoxicity of anthrols on cancer stem-like cells: The effect of quinone methides or reactive oxygen species” (Eur J Med Chem, 2017).
# Activity calls are given as the source filed them. The calls are words filed in the database; no cut-off is given here.
# Experiments:
# [1] = Induction of reactive oxygen species generation in HMLE-shGFP cells at 1 to 10 uM irradiated at 420 nm for 5 mins measured after 2 hrs by H2DCF-DA dye-based FACS analysis relative to non-irradiated cells; format: cell-based; settings: human
# MCF7 [2] = assay: Photocytotoxicity against human MCF7 cells assessed as growth inhibition irradiated at 420 nm at 4, 24, 48 hrs post compound addition for 5 mins measured after 72 hrs by MTT assay; format: functional, cell-based; settings: MCF7, light or radiation study
# [3] = Dark toxicity against human MCF7 cells after 72 hrs by MTT assay; format: cell-based
# SUM-159-PT [4] = assay: Cell cycle arrest in human SUM159 cells in presence of irradiation; format: functional, cell-based
# [5] = Photocytotoxicity against HMLE-shGFP cells assessed as growth inhibition irradiated at 350 nm at 4, 24, 48 hrs post compound addition for 5 mins measured after 72 hrs by MTT assay; format: cell-based; settings: Homo sapiens, light or radiation study
# SUM-159-PT [6] = assay: Induction of reactive oxygen species generation in human SUM159 cells at 1 to 10 uM irradiated at 420 nm for 5 mins measured after 2 hrs by H2DCF-DA dye-based FACS analysis; format: functional, cell-based
# NCI-H460 [7] = assay: Photocytotoxicity against human H460 cells assessed as growth inhibition irradiated at 420 nm at 4, 24, 48 hrs post compound addition for 5 mins measured after 72 hrs by MTT assay; format: functional, cell-based; settings: NCI-H460, light or radiation study
# [8] = Cell cycle arrest in HMLE-shEcad cells assessed as delay in G1/S phase at 1 to 10 uM after 24 to 48 hrs in absence of irradiation by propidium iodide staining-based flow cytometric method; settings: human
# MCF7 [9] = assay: Induction of reactive oxygen species generation in human MCF7 cells at 1 to 10 uM irradiated at 420 nm for 5 mins measured after 2 hrs by H2DCF-DA dye-based FACS analysis; format: functional, cell-based
# [10] = Induction of cell damage in HMLE-shGFP cells assessed as cell swelling at 5 uM irradiated at 420 nm for 5 mins measured after 2 to 3 hrs by confocal microscopic method; format: cell-based; settings: human
# [11] = Decrease in reactive oxygen species generation in HMLE-shEcad cells at 1 uM in absence of irradiation measured after 2 hrs by H2DCF-DA dye-based FACS analysis; format: ADME, cell-based; settings: human
# [12] = Cytotoxicity against HMLE-shGFP cells at 10 uM irradiated at 420 nm at 4 hrs post compound addition for 5 mins measured after 48 hrs by propidium iodide staining-based flow cytometric method; format: cell-based; settings: human
# HCT-116 [13] = assay: Photocytotoxicity against human HCT116 cells assessed as growth inhibition irradiated at 420 nm at 4, 24, 48 hrs post compound addition for 5 mins measured after 72 hrs by MTT assay; format: functional, cell-based; settings: HCT-116, light or radiation study
# [14] = Dark toxicity against HMLE-shGFP cells after 72 hrs by MTT assay; format: cell-based; settings: human
# [15] = Cell cycle arrest in HMLE-shGFP cells assessed as accumulation at G2/M phase at 1 to 10 uM irradiated at 420 nm at 4 hrs post compound addition for 5 mins measured after 24 to 48 hrs by propidium iodide staining-based flow cytometric method; settings: human
# HMLE [16] = assay: Cell cycle arrest in HMLE-shEcad cells assessed as accumulation at S phase at 1 to 10 uM irradiated at 420 nm at 4 hrs post compound addition for 5 mins measured after 24 to 48 hrs by propidium iodide staining-based flow cytometric method; format: functional; settings: Homo sapiens
# [17] = Dark toxicity against HMLE-shEcad cells after 72 hrs by MTT assay; format: cell-based; settings: human
# HMLE [18] = assay: Cytotoxicity against HMLE-shEcad cells at 10 uM irradiated at 420 nm at 4 hrs post compound addition for 5 mins measured after 48 hrs by propidium iodide staining-based flow cytometric method; format: functional, cell-based; settings: Homo sapiens
# [19] = Induction of cell damage in HMLE-shGFP cells assessed as membrane blebbing at 5 uM irradiated at 420 nm for 5 mins measured after 2 to 3 hrs by confocal microscopic method; format: cell-based; settings: human
# MCF7 [20] = assay: Cell cycle arrest in human MCF7 cells in presence of irradiation; format: functional, cell-based
# [21] = Dark toxicity against human H460 cells after 72 hrs by MTT assay; format: cell-based, NCI-H460
# HMLE [22] = assay: Anticlonogenic activity against HMLE-shEcad cells at 0.5 to 1 uM irradiated at 350 nm at 4 hrs post compound addition for 5 mins for 5 mins measured after 24 hrs by crystal violet staining-based assay; format: functional, cell-based; settings: Homo sapiens
# [23] = Drug uptake in cytoplasm of HMLE-shGFP cells at 5 uM irradiated at 420 nm for 5 mins measured after 2 to 3 hrs by confocal microscopic method; format: ADME, subcellular; settings: human
# [24] = Drug uptake in nucleus of HMLE-shEcad cells at 10 uM in absence of irradiation measured after 2 to 3 hrs by confocal microscopic method; format: ADME, subcellular; settings: human
# [25] = Drug uptake in cytoplasm of HMLE-shEcad cells at 10 uM in absence of irradiation measured after 2 to 3 hrs by confocal microscopic method; format: ADME, subcellular; settings: human
# [26] = Photocytotoxicity against HMLE-shEcad cells assessed as growth inhibition irradiated at 350 nm at 4, 24, 48 hrs post compound addition for 5 mins measured after 72 hrs by MTT assay; format: functional, cell-based; settings: Homo sapiens, light or radiation study
# [27] = Drug uptake in plasma membranes of HMLE-shGFP cells at 5 uM irradiated at 420 nm for 5 mins measured after 2 to 3 hrs by confocal microscopic method; format: ADME, cell membranes, Plasma membrane; settings: human
# [28] = Photocytotoxicity against HMLE-shGFP cells assessed as growth inhibition irradiated at 420 nm at 4, 24, 48 hrs post compound addition for 5 mins measured after 72 hrs by MTT assay; format: cell-based; settings: Homo sapiens, light or radiation study
# [29] = Drug uptake in nucleus of HMLE-shGFP cells at 5 uM irradiated at 420 nm for 5 mins measured after 2 to 3 hrs by confocal microscopic method; format: ADME, subcellular; settings: human
# MCF7 [30] = assay: Photocytotoxicity against human MCF7 cells assessed as growth inhibition irradiated at 350 nm at 4, 24, 48 hrs post compound addition for 5 mins measured after 72 hrs by MTT assay; format: functional, cell-based; settings: MCF7, light or radiation study
# SUM-159-PT [31] = assay: Photocytotoxicity against human SUM159 cells assessed as growth inhibition irradiated at 420 nm at 4, 24, 48 hrs post compound addition for 5 mins measured after 72 hrs by MTT assay; format: functional, cell-based; settings: light or radiation study
# HCT-116 [32] = assay: Photocytotoxicity against human HCT116 cells assessed as growth inhibition irradiated at 350 nm at 4, 24, 48 hrs post compound addition for 5 mins measured after 72 hrs by MTT assay; format: functional, cell-based; settings: HCT-116, light or radiation study
# [33] = Induction of cell damage in HMLE-shGFP cells assessed as degradation of internal structure at 5 uM irradiated at 420 nm for 5 mins measured after 2 to 3 hrs by confocal microscopic method; format: cell-based; settings: human
# HMLE [34] = assay: Cell cycle arrest in HMLE-shEcad cells assessed as accumulation at G2/M phase at 1 to 10 uM irradiated at 420 nm at 4 hrs post compound addition for 5 mins measured after 24 to 48 hrs by propidium iodide staining-based flow cytometric method; format: functional; settings: Homo sapiens
# [35] = Photocytotoxicity against HMLE-shEcad cells assessed as growth inhibition irradiated at 420 nm at 4, 24, 48 hrs post compound addition for 5 mins measured after 72 hrs by MTT assay; format: functional, cell-based; settings: Homo sapiens, light or radiation study
# [36] = Drug uptake in intracellular membranes of HMLE-shGFP cells at 5 uM irradiated at 420 nm for 5 mins measured after 2 to 3 hrs by confocal microscopic method; format: ADME, cell membranes, Intracellular membrane; settings: human
# [37] = Dark toxicity against human SUM159 cells after 72 hrs by MTT assay; format: cell-based, SUM-159-PT
# [38] = Dark toxicity against human HCT116 cells after 72 hrs by MTT assay; format: cell-based, HCT-116
# NCI-H460 [39] = assay: Photocytotoxicity against human H460 cells assessed as growth inhibition irradiated at 350 nm at 4, 24, 48 hrs post compound addition for 5 mins measured after 72 hrs by MTT assay; format: functional, cell-based; settings: NCI-H460, light or radiation study
# [40] = Cell cycle arrest in HMLE-shGFP cells assessed as accumulation at S phase at 1 to 10 uM irradiated at 420 nm at 4 hrs post compound addition for 5 mins measured after 24 to 48 hrs by propidium iodide staining-based flow cytometric method; settings: human
smiles,measurement,setting,value
Oc1ccc2cc3ccccc3cc2c1,fold change (FC),[1],2
same,IC50,MCF7 [2],1 µM
same,IC50 at 72 h,[3],28 µM
same,Activity,SUM-159-PT [4],inactive
same,IC50,[5],2 µM
same,Activity,SUM-159-PT [6],Active
same,IC50,NCI-H460 [7],2 µM
same,Activity,[8],Toxic
same,Activity,MCF7 [9],Active
same,Activity,[10],Toxic
same,Activity,[11],Toxic
same,Activity,[12],Toxic
same,IC50,HCT-116 [13],2 µM
same,IC50 at 72 h,[14],27 µM
same,Activity,[15],Toxic
same,Activity,HMLE [16],Active
same,IC50 at 72 h,[17],25 µM
same,Activity,HMLE [18],Active
same,Activity,[19],Toxic
same,Activity,MCF7 [20],inactive
same,IC50 at 72 h,[21],23 µM
same,Activity,HMLE [22],Active
same,Drug uptake,[23],Active
same,Drug uptake,[24],Not Active
same,Drug uptake,[25],Active
same,IC50,[26],2 µM
same,Drug uptake,[27],Active
same,IC50,[28],2 µM
same,Drug uptake,[29],Not Active
same,IC50,MCF7 [30],2 µM
same,IC50,SUM-159-PT [31],2 µM
same,IC50,HCT-116 [32],9 µM
same,Activity,[33],Toxic
same,Activity,HMLE [34],Active
same,IC50,[35],1 µM
same,Drug uptake,[36],Active
same,IC50 at 72 h,[37],18 µM
same,IC50 at 72 h,[38],27 µM
same,IC50,NCI-H460 [39],12 µM
same,Activity,[40],Toxic
